# Values quoted from earlier work as cited in patent US6495170B1, “Method of increasing the presence of glutathione in cells” (N. V. Nutricia, priority 2000, dated 2002).
# Tests used:
# [1] = 200 μg/day supplement for 2 months
# [2] = mice, ethanol-induced liver peroxidation, pretreatment 200 mg/kg
# [3] = ingested in large amounts
# γ-GCS = conditions: mediated by increased expression of γ-GCS mRNA and enzyme activity via AP-1
# [4] = system: hepatoblastoma Hep G2 cells
# [5] = system: glutathione-S-transferase
# hepatic glutathione = conditions: induced by ethyl alcohol and paracetamol, rats
# [6] = 50 mg/kg p.o., mice treated with CCl4
molecule,measurement,setting,value
[Se] [Selenium],peroxidative parameters,[1],no effect
same,plasma selenium levels and glutathione peroxidase,[1],significantly improved
COc1cc2c(c(O)c1OC)-c1c(cc(OC)c(OC)c1OC)C[C@@H](C)[C@@H](C)C2 [schisanhenol],GSH-peroxidase activity,[2],unaffected
same,dismutase and catalase activity,[2],increased
"CC(=O)Nc1ccc(O)cc1 [Acetaminophen, acetaminophen]",hepatotoxicity,[3],severe hepatic necrosis
COc1cc(C(C)=O)ccc1O [Apocynin],intracellular GSH synthesis,γ-GCS,enhances
silymarin,acetaminophen-induced GSH depletion and cytotoxicity,[4],protects
COc1cc(C2Oc3cc([C@H]4Oc5cc(O)cc(O)c5C(=O)[C@@H]4O)ccc3OC2CO)ccc1O (stereo partly shown) [silybin],superoxide and hydrogen peroxide production,human neutrophils,inhibitory effects
same,inhibition of glutathione-S-transferase,[5],"potent, non-toxic, inhibitor"
same,hepatic glutathione depletion,hepatic glutathione,protect
same,GSH depletion by buthionine sulfoximide,isolated rat hepatocytes,does not affect
same,GSH depletion induced by acetaminophen,isolated rat hepatocytes,reduces
same,activity of superoxide dismutase and glutathione peroxidase,human erythrocytes,increased
"[Zn] [zinc, Zinc]",plasma zinc bound to RBP,,< 2%
same,plasma zinc bound to albumin,,80-85%
same,plasma zinc bound to alpha2-macroglobulin,,15%
COc1cc2c(c(OC)c1OC)-c1c(cc3c(c1OC)OCO3)CC(C)C(C)C2 (stereo not shown) [schisandrin B],GSH/GSSG ratio,mitochondrial GSH; 3 mmol/kg/day p.o.,elevating
same,GSSG level,mitochondrial GSH; 3 mmol/kg/day p.o.,decreased
same,mitochondrial GSH level,mitochondrial GSH; 3 mmol/kg/day p.o.,increased
same,mitochondrial GSH reductase activity,mitochondrial GSH; 3 mmol/kg/day p.o.,increased
same,GSH-peroxidase activity,[2],unaffected
same,dismutase and catalase activity,[2],increased
COc1cc(C(=O)O[C@H]2[C@@H]3C=CO[C@@H](O[C@@H]4O[C@H](CO)[C@@H](O)[C@H](O)[C@H]4O)[C@@H]3[C@@]3(CO)O[C@@H]23)ccc1O [Picroside II],hepatoprotective activity,[6],showed a hepatoprotective activity
O=NN(CCCl)C(=O)NCCCl [BCNU],GSH reductase activity,mitochondrial GSH; CCl4-intoxicated mice,inhibited
same,effect on the protective activity of schisandrin B,mitochondrial GSH; CCl4-intoxicated mice,did not affect
